Measured values reported in ChEMBL document CHEMBL2440114, “Methanolysis of triterpenoid saponin from Ardisia gigantifolia stapf. and structure-activity relationship study against cancer cells” (Bioorg Med Chem Lett, 2013).

Key:
A549 = assay: Antiproliferative activity against human A549 cells by MTT assay; assay type: functional, cell-based
HCT-8 = assay: Antiproliferative activity against human HCT8 cells by MTT assay; assay type: functional, cell-based
Bel-7402 [1] = assay: Antiproliferative activity against human Bel7402 cells by MTT assay; assay type: functional, cell-based
Bel-7402 [2] = assay: Antiproliferative activity against human Bel7402 cells at 0.5 to 20 uM by MTT assay; assay type: functional, cell-based; conditions: TDE = time-dependent effect
Bel-7402 [3] = assay: Cell cycle arrest in human Bel7402 cells assessed as accumulation in G2/M phase (reference value: 43.75+/- 1.1 %); assay type: functional
Bel-7402 [4] = assay: Antiproliferative activity against human Bel7402 cells after 12 to 72 hrs by MTT assay; assay type: functional, cell-based
Bel-7402 [5] = assay: Cell cycle arrest in human Bel7402 cells assessed as accumulation in G1 phase (reference value: 37.6+/- 1.4 %); assay type: functional
HeLa = assay: Cytotoxicity against human HeLa cells; assay type: functional, cell-based
EJ = assay: Cytotoxicity against human EJ cells; assay type: functional, cell-based
[6] = Cytotoxicity against human […] cells; assay type: functional, cell-based
HepG2 = assay: Cytotoxicity against human HepG2 cells; assay type: functional, cell-based
Bel-7402 [7] = assay: Cell cycle arrest in human Bel7402 cells assessed as accumulation in S phase (reference value: 18.65+/- 0.5 %); assay type: functional

Structure (SMILES) | IC50 (A549) [µM] | IC50 (HCT-8) [µM] | IC50 (Bel-7402 [1]) [µM] | further results
CCCCO[C@H]1OC[C@]23CC[C@@]1(C)C[C@H]2C1=CC[C@@H]2[C@@]4(C)CC[C@H](O[C@@H]5OC[C@H](O[C@@H]6O[C@H](CO)[C@@H](O)[C@H](O)[C@H]6O)[C@H](O)[C@H]5O[C@@H]5O[C@H](CO)[C@@H](O)[C@H](O)[C@H]5O)C(C)(C)[C@@H]4CC[C@@]2(C)[C@]1(C)C[C@H]3O | > 100 | > 100 | > 100 | 
C[C@@H]1O[C@@H](O[C@H]2[C@H](O)[C@@H](CO)O[C@@H](O[C@H]3CO[C@@H](O[C@H]4CC[C@]5(C)[C@H]6CC[C@]78OC[C@@]9(CC[C@](C)(CO)C[C@H]97)C(=O)C[C@@]8(C)[C@]6(C)CC[C@H]5C4(C)C)[C@H](O[C@@H]4O[C@H](CO)[C@@H](O)[C@H](O)[C@H]4O)[C@H]3O)[C@@H]2O[C@@H]2OC[C@@H](O)[C@H](O)[C@H]2O)[C@H](O)[C@H](O)[C@H]1O | 3.77 | 3.41 | 3.6 | 
CC1(C)[C@@H](O[C@@H]2OC[C@H](O[C@@H]3O[C@H](CO)[C@@H](O)[C@H](O)[C@H]3O[C@@H]3OC[C@@H](O)[C@H](O)[C@H]3O)[C@H](O)[C@H]2O)CC[C@]2(C)[C@H]3CC[C@]45OC[C@@]6(CC[C@](C)(C=O)C[C@H]64)[C@H](O)C[C@@]5(C)[C@]3(C)CC[C@@H]12 [PRIMULANIN] | 12 | 8.43 | 10.3 | 
CCCCO[C@H]1OC[C@]23CC[C@@]1(C)C[C@H]2C1=CC[C@@H]2[C@@]4(C)CC[C@H](O)C(C)(C)[C@@H]4CC[C@@]2(C)[C@]1(C)C[C@H]3O | 44.3 | > 100 | 53.1 | 
CCCCO[C@@H]1OC[C@]23CC[C@@]1(C)C[C@H]2C1=CC[C@@H]2[C@@]4(C)CC[C@H](O[C@@H]5OC[C@H](O[C@@H]6O[C@H](CO)[C@@H](O)[C@H](O)[C@H]6O)[C@H](O)[C@H]5O[C@@H]5O[C@H](CO)[C@@H](O)[C@H](O)[C@H]5O)C(C)(C)[C@@H]4CC[C@@]2(C)[C@]1(C)C[C@H]3O | 10.6 | > 100 | 7.34 | 
CC1(C)CC[C@]23CO[C@@]4(CC[C@@H]5[C@@]6(C)CC[C@H](O[C@@H]7OC[C@H](O[C@@H]8O[C@H](CO)[C@@H](O)[C@H](O)[C@H]8O[C@@H]8OC[C@@H](O)[C@H](O)[C@H]8O)[C@H](O)[C@H]7O[C@@H]7O[C@H](CO)[C@@H](O)[C@H](O)[C@H]7O)C(C)(C)[C@@H]6CC[C@@]5(C)[C@]4(C)C[C@H]2O)[C@@H]3C1 [LYSIKOKIANOSIDE 1] | 4.37 | 10.1 | 6.77 | 
CCCCO[C@@H]1OC[C@]23CC[C@@]1(C)C[C@H]2C1=CC[C@@H]2[C@@]4(C)CC[C@H](O)C(C)(C)[C@@H]4CC[C@@]2(C)[C@]1(C)C[C@H]3O | > 100 | > 100 | 11.6 | 
O=c1[nH]cc(F)c(=O)[nH]1 [FLUOROURACIL] |  | 6.92 | 8.3 | 
C[C@@H]1O[C@@H](O[C@H]2[C@H](O)[C@@H](CO)O[C@@H](O[C@H]3CO[C@@H](O[C@H]4CC[C@]5(C)[C@H]6CC[C@]78OC[C@@]9(CC[C@](C)(C=O)C[C@H]97)[C@H](O)C[C@@]8(C)[C@]6(C)CC[C@H]5C4(C)C)[C@H](O[C@@H]4O[C@H](CO)[C@@H](O)[C@H](O)[C@H]4O)[C@H]3O)[C@@H]2O[C@@H]2OC[C@@H](O)[C@H](O[C@@H]3O[C@H](CO)[C@@H](O)[C@H](O)[C@H]3O)[C@H]2O)[C@H](O)[C@H](O)[C@H]1O | 3.2 | 2 | 3.2 | 
CC(=O)OC[C@@]1(C)CC[C@]23CO[C@@]4(CC[C@@H]5[C@@]6(C)CC[C@H](O[C@@H]7OC[C@H](O[C@@H]8O[C@H](CO)[C@@H](O)[C@H](O[C@@H]9O[C@@H](C)[C@H](O)[C@@H](O)[C@H]9O)[C@H]8O[C@@H]8OC[C@@H](O)[C@H](O)[C@H]8O)[C@H](O)[C@H]7O[C@@H]7O[C@H](CO)[C@@H](O)[C@H](O)[C@H]7O)C(C)(C)[C@@H]6CC[C@@]5(C)[C@]4(C)C[C@H]2O)[C@@H]3C1 | 59.7 | > 100 | > 100 | 
CC(=O)OC[C@H]1O[C@@H](O[C@H]2[C@H](O[C@H]3CC[C@]4(C)[C@H]5CC[C@]67OC[C@@]8(CCC(C)(C)C[C@H]86)[C@H](O)C[C@@]7(C)[C@]5(C)CC[C@H]4C3(C)C)OC[C@H](O[C@@H]3O[C@H](CO)[C@@H](O)[C@H](O[C@@H]4O[C@@H](C)[C@H](O)[C@@H](O)[C@H]4O)[C@H]3O[C@@H]3OC[C@@H](O)[C@H](O)[C@H]3O)[C@@H]2O)[C@H](O)[C@@H](O)[C@@H]1O | 8.06 | 9.28 | 8.4 | 
C[C@@H]1O[C@@H](O[C@H]2[C@H](O)[C@@H](CO)O[C@@H](O[C@H]3CO[C@@H](O[C@H]4CC[C@]5(C)[C@H]6CC[C@]78OC[C@@]9(CC[C@](C)(CO)C[C@H]97)[C@H](O)C[C@@]8(C)[C@]6(C)CC[C@H]5C4(C)C)[C@H](O[C@@H]4O[C@H](CO)[C@@H](O)[C@H](O)[C@H]4O)[C@H]3O)[C@@H]2O[C@@H]2OC[C@@H](O)[C@H](O)[C@H]2O)[C@H](O)[C@H](O)[C@H]1O | 31 | 8.63 | > 100 | 
C[C@@H]1O[C@@H](O[C@H]2[C@H](O)[C@@H](CO)O[C@@H](O[C@H]3CO[C@@H](O[C@H]4CC[C@]5(C)[C@H]6CC[C@]78OC[C@@]9(CCC(C)(C)C[C@H]97)[C@H](O)C[C@@]8(C)[C@]6(C)CC[C@H]5C4(C)C)[C@H](O[C@@H]4O[C@H](CO)[C@@H](O)[C@H](O)[C@H]4O)[C@H]3O)[C@@H]2O[C@@H]2OC[C@@H](O)[C@H](O[C@@H]3O[C@H](CO)[C@@H](O)[C@H](O)[C@H]3O)[C@H]2O)[C@H](O)[C@H](O)[C@H]1O | 8.15 | 10.1 | 7.83 | Activity (Bel-7402 [2]): tde; Activity (Bel-7402 [3]): 59.94%; Activity (Bel-7402 [4]): Dose-dependent effect; Activity (Bel-7402 [5]): 40.86%
CC(=O)OC[C@@]1(C)CC[C@]23CO[C@@]4(CC[C@@H]5[C@@]6(C)CC[C@H](O[C@@H]7OC[C@H](O[C@@H]8O[C@H](CO)[C@@H](O)[C@H](O[C@@H]9O[C@@H](C)[C@H](O)[C@@H](O)[C@H]9O)[C@H]8O[C@@H]8OC[C@@H](O)[C@H](O[C@@H]9O[C@H](CO)[C@@H](O)[C@H](O)[C@H]9O)[C@H]8O)[C@H](O)[C@H]7O[C@@H]7O[C@H](CO)[C@@H](O)[C@H](O)[C@H]7O)C(C)(C)[C@@H]6CC[C@@]5(C)[C@]4(C)C[C@H]2O)[C@@H]3C1 | 6.33 | 5.73 | 2.71 | 
CC(=O)OC[C@H]1O[C@@H](O[C@H]2[C@H](O[C@H]3CC[C@]4(C)[C@H]5CC[C@]67OC[C@@]8(CC[C@](C)(C=O)C[C@H]86)[C@H](O)C[C@@]7(C)[C@]5(C)CC[C@H]4C3(C)C)OC[C@H](O[C@@H]3O[C@H](CO)[C@@H](O)[C@H](O[C@@H]4O[C@@H](C)[C@H](O)[C@@H](O)[C@H]4O)[C@H]3O[C@@H]3OC[C@@H](O)[C@H](O)[C@H]3O)[C@@H]2O)[C@H](O)[C@@H](O)[C@@H]1O | 7.52 | 4.1 | 7.76 | 
C[C@@H]1O[C@@H](O[C@H]2[C@H](O)[C@@H](CO)O[C@@H](O[C@H]3CO[C@@H](O[C@H]4CC[C@]5(C)[C@H]6CC[C@]78OC[C@@]9(CC[C@](C)(C=O)C[C@H]97)[C@H](O)C[C@@]8(C)[C@]6(C)CC[C@H]5C4(C)C)[C@H](O[C@@H]4O[C@H](CO)[C@@H](O)[C@H](O)[C@H]4O)[C@H]3O)[C@@H]2O[C@@H]2OC[C@@H](O)[C@H](O)[C@H]2O)[C@H](O)[C@H](O)[C@H]1O | > 100 | > 100 | 1.58 | IC50 (HeLa): 1.8 µM; IC50 (EJ): 2 µM; IC50 [6]: 2.1 µM; IC50 (HepG2): 1.9 µM
C[C@@H]1O[C@@H](O[C@H]2[C@H](O)[C@@H](CO)O[C@@H](O[C@H]3CO[C@@H](O[C@H]4CC[C@]5(C)[C@H]6CC[C@]78OC[C@@]9(CCC(C)(C)C[C@H]97)[C@H](O)C[C@@]8(C)[C@]6(C)CC[C@H]5C4(C)C)[C@H](O[C@@H]4O[C@H](CO)[C@@H](O)[C@H](O)[C@H]4O)[C@H]3O)[C@@H]2O[C@@H]2OC[C@@H](O)[C@H](O)[C@H]2O)[C@H](O)[C@H](O)[C@H]1O | 51.8 | > 100 | 0.86 | Activity (Bel-7402 [2]): tde; Activity (Bel-7402 [7]): 18.61%; Activity (Bel-7402 [3]): 48.08%; Activity (Bel-7402 [4]): Dose-dependent effect; Activity (Bel-7402 [5]): 33.31%
C[C@@H]1O[C@@H](O[C@H]2[C@H](O)[C@@H](CO)O[C@@H](O[C@H]3CO[C@@H](O[C@H]4CC[C@]5(C)[C@H]6CC[C@]78OC[C@@]9(CC[C@](C)(C=O)C[C@H]97)C(=O)C[C@@]8(C)[C@]6(C)CC[C@H]5C4(C)C)[C@H](O)[C@H]3O)[C@@H]2O[C@@H]2OC[C@@H](O)[C@H](O)[C@H]2O)[C@H](O)[C@H](O)[C@H]1O | 10 | 7.73 | 6.9 | 
